What was measured:
TCPTPCAT [1] = target: T1, TCPTPCAT (Homo sapiens, UniProt P17706); assay: Kinetics of TCPTPCAT with saturating ITGA1 peptide, pEGFR peptide-2 substrate; type: biochemical; conditions: TCPTPCAT saturated with ITGA1 peptide (ITGA1_TR 1 μM), mean ± SE, n = 9
T1 construct: TCPTP and TCPTPCAT (residue 1–314) against 2 phosphotyrosine peptides derived from EGFR; His6 (N, cleaved yes); made in house; host or cells: E. coli BL21 (DE3) RIL
T1 sequence (P17706 1-314 isoform P17706-2): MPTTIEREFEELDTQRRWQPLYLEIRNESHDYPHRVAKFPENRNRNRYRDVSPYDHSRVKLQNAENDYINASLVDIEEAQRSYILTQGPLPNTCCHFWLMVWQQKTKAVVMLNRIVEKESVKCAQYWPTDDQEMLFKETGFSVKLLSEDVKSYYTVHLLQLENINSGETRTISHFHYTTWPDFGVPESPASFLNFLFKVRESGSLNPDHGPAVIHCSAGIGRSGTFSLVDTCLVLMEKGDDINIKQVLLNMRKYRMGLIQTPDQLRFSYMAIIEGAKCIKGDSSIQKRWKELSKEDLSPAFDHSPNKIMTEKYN
From the text: (§1) Polymerase chain reaction (PCR) fragments of TCPTP (residues: 1–387) TCPTPCAT (catalytic domain, residues: 1–288, 1–302 or 1–314), TCPTPTail (C-terminal tail, residues: 289–387 or 303–387) were amplified from full-length human TCPTP (TC45 isoform). TCPTP, TCPTPCAT (residues: 1–288, 1–314), and TCPTPTail (residues: 289–387) fragments were cloned into pMCSG7 including a N-terminal His6-tag using ligation-independent cloning. For all NMR experiments, the PCR fragments of TCPTP, TCPTPCAT (residues: 1–302) and TCPTPTail (residue: 303–387) were sub-cloned into pRP1B as previously described.
(§2) The rate of dephosphorylation of TCPTP and TCPTPCAT (residue 1–314) against 2 phosphotyrosine peptides derived from EGFR was monitored either with or without ITGA1 peptide (ITGA1_FCT & ITGA1_TR) in assay buffer (25 mM Hepes pH 7.4, 50 mM NaCl and 1 mM DTT). Lyophilized powder of all synthetic peptides was dissolved in assay buffer without DTT (phosphopeptides, 5 mM; ITGA1 peptides, 2 mM). For the kinetic analysis, the concentration of the enzyme was fixed at 1 nM while the substrate (phosphopeptides) concentration was varied from 2.5 μM to 160 μM in a total reaction volume of 200 μl. Effect of ITGA1 peptide on TCPTP & TCPTPCAT kinetics were assessed in saturated condition by adding an excess amount of ITGA1 peptide to the reaction mixture (ITGA1_TR = 1 μM; ITGA1_FCT = 25 μM). The reaction was incubated at 30 °C for 30 min and stopped by the addition of 30 μl phosphate reagent (phosphate colorimetric assay kit; Bio Vision) following the manufacturer’s instructions. Data were normalized and fitted using a nonlinear curve, and kinetics parameters (KM and kcat) were calculated from the Michaelis-Menten equation using Graph Pad Prism 9.0. All data points in the enzyme kinetics experiment were measured in triplicate, and the experiments were repeated three times.

TCPTPCAT [2] = target: T1, TCPTPCAT; assay: Kinetics of TCPTPCAT with saturating ITGA1 peptide, pEGFR peptide-1 substrate; type: biochemical; conditions: TCPTPCAT saturated with ITGA1 peptide (ITGA1_TR 1 μM), mean ± SE, n = 9
From the text: as §1, §2

TCPTPCAT [3] = target: T1, TCPTPCAT; assay: NMR titration (2D HSQC/TROSY) binding to TCPTPCAT; conditions: 2D [1H,15N] TROSY, unlabeled ligand added
From the text: as §1
NMR data were collected on either Bruker NEO 600 MHz or 800 MHz spectrometers equipped with TCI HCN z-gradient cryoprobes at 298 K or 283 K. NMR measurements of TCPTP’s variant construct were recorded using (^1H,^15N)-, (^2H,^15N)-, (^1H,^15N,^13C), or (^2H,^15N,^13C)-labeled protein at a final concentration of 0.6 mM for backbone assignment or 0.1 mM for titration in NMR buffer and 90% H2O/10% D2O. The sequence-specific backbone assignments of TCPTP (residues 1–387), TCPTPCAT (residues 1–302), TCPTPTail (residues 303–387) and other variants were achieved using 3D triple resonance experiments including […], 3D HNCA, 3D HN(CO)CA, 3D HN(CO)CACB, and 3D HNCACB either as HSQC or TROSY variations. All NMR data were processed using TopSpin 4.0.5[44] and analyzed using either CARA (http://www.cara.nmr.ch) and/or CcpNMR[45].

TCPTP = target: T2, TCPTP (Homo sapiens, UniProt P17706); assay: Kinetics of TCPTP with saturating ITGA1 peptide, pEGFR peptide-2 substrate; type: biochemical; conditions: TCPTP saturated with ITGA1 peptide (ITGA1_TR 1 μM; ITGA1_FCT 25 μM), mean ± SE, n = 9
T2 construct: fragments of TCPTP (residues: 1–387); His6 (N, cleaved yes); made in house; host or cells: E. coli BL21 (DE3) RIL
T2 sequence (P17706 1-387 isoform P17706-2): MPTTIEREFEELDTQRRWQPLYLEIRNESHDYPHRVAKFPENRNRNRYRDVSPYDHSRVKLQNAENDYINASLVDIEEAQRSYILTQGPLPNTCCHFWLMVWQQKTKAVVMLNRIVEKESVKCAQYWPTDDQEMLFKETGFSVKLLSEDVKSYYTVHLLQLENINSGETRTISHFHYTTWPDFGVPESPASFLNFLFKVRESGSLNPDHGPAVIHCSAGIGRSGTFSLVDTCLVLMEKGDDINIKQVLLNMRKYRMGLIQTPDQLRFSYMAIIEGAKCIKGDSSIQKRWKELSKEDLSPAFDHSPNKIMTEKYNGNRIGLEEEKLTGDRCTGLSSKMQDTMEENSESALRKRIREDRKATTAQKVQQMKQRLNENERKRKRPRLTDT
From the text: as §1, §2

[4] = pEGFR peptide-2, pH 7.4, 30 °C 30 min

RPLKKKMEKRPLKKKMEK [ITGA1_TR, ITGA1 tandem repeat (2x ITGA1_TCT): …]
kcat (TCPTPCAT [1]; [4]): 35.6 ± 0.6 s⁻¹
Km (TCPTPCAT [1]; pEGFR peptide-2): 28.3 ± 1.3 µM
kcat/Km (TCPTPCAT [1]; pEGFR peptide-2): 1.2 ± 0.1 µM -1s-1
kcat (TCPTPCAT [2]; pEGFR peptide-1, 1 nM enzyme, pH 7.4, 30 °C 30 min): 31.1 ± 0.7 s⁻¹
Km (TCPTPCAT [2]; pEGFR peptide-1, pH 7.4, 30 °C): 23 ± 1.6 µM
kcat/Km (TCPTPCAT [2]; pEGFR peptide-1): 1.3e+06 ± 100000 M⁻¹ s⁻¹
NMR titration: CSPs in (2H,15N)-labeled TCPTPCAT (TCPTPCAT [3]): significant CSPs in the same residues
kcat (TCPTP; [4]): 34.7 ± 2.3 s⁻¹
Km (TCPTP; pEGFR peptide-2): 40.9 ± 6.8 µM
kcat/Km (TCPTP; pEGFR peptide-2): 0.8 ± 0.1 µM -1s-1

— article PMC8748766, “The catalytic activity of TCPTP is auto-regulated by its intrinsically disordered tail and activated by Integrin alpha-1” (Nature Communications, 2022)
